The results in this text go back to patent US8026240B2, “Octahydro-pyrrolo[3,4-b]pyrrole N-oxides” (Abbott Laboratories, priority 2007, dated 2011).

The target of this assay is T1, rat histamine-3 receptor (Rattus norvegicus, UniProt Q9QYN8).
T1 construct: expressed in transfected cells; host or cells: C6 or HEK293 cells
The experiment in a line: histamine-3 receptor competition binding with [H3]-N-α-methylhistamine. On the procedure:
To determine the effectiveness of representative compounds of this invention as histamine-3 receptor ligands, the following tests were conducted according to previously described methods (see Arrang et al, “Histamine H3 Receptor Binding Sites in Rat Brain Membranes:Modulations by Guanine Nucleotides and Divalent Cations”, European Journal of Pharmacology, Vol. 188, pp. 219-227 (1990); Tedford et al., “Pharmacological Characterization of GT-2016, A Non-Thiourea-Containing Histamine H3 Receptor Antagonist: In Vitro and In Vivo Studies”, The Journal of Pharmacology and Experimental Therapeutics, Vol. 275, pp. 598-604 (1995); Leurs et al., “Histamine Homologues Discriminating Between Two Functional H3-Receptor Assays. Evidence for H3 Receptor”, Journal of Pharmacology and Experimental Therapeutics, Vol. 276, No. 3, pp. 1009-1015 (1996); and Cheng et al., “Relationship Between the Inhibition Constant (K1) and the Concentration of Inhibitor which Causes 50% Inhibition (150) of an Enzymatic Reaction”, Biochemical Pharmacology, Vol. 22., pp. 3099-3108 (1973)).
The rat histamine-3 receptor was cloned and expressed in cells, and competition binding assays carried out, according to methods previously described (see Esbenshade et al., “Pharmacological Properties of ABT-239 [4-(2-{2-[(2R)-2-Methylpyrrolidinyl ]ethyl}-benzofuran-5-yl)benzonitrile]: I. Potent and Selective Histamine H3 Receptor Antagonist with Drug-Like Properties”, Journal of Pharmacology and Experimental Therapeutics, Vol. 313, pp. 165-175, (2005); Esbenshade et al., “Pharmacological and Behavioral Properties of A-349821, a Selective and Potent Human Histamine H3 Receptor Antagonist”, Biochemical Pharmacology, Vol 68, pp. 933-945 (2004); Krueger et al., “G Protein-Dependent Pharmacology of Histamine H3 Receptor Ligands: Evidence for Heterogeneous Active State Receptor Conformations”, Journal of Pharmacology and Experimental Therapeutics, Vol. 314, pp. 271-281 (2005)). Membranes were prepared from C6 or HEK293 cells, expressing the rat histamine-3 receptor, by homogenization on ice in TE buffer (50 mM Tris-HCl buffer, pH 7.4, containing 5 mM EDTA), 1 mM benzamidine, 2 μg/ml aprotinin, 1 μg/ml leupeptin, and 1 μg/ml pepstatin. The homogenate was centrifuged at 40,000 g for 20 minutes at 4° C. […]
Membrane preparations were incubated with [H3]-N-α-methylhistamine (0.5-1.0 nM) in the presence or absence of increasing concentrations of ligands of formula (I) and formula (II) for histamine-3 receptor competition binding. […] Bound radiolabel was determined by liquid scintillation counting. For all of the radioligand competition binding assays, IC50 values and Hill slopes were determined by Hill transformation of the data and pKi values were determined by the Cheng-Prusoff equation.

[1] abbreviates: compounds of formula (I), mean of 4 separate determinations.

T1 sequence (Q9QYN8 whole entry): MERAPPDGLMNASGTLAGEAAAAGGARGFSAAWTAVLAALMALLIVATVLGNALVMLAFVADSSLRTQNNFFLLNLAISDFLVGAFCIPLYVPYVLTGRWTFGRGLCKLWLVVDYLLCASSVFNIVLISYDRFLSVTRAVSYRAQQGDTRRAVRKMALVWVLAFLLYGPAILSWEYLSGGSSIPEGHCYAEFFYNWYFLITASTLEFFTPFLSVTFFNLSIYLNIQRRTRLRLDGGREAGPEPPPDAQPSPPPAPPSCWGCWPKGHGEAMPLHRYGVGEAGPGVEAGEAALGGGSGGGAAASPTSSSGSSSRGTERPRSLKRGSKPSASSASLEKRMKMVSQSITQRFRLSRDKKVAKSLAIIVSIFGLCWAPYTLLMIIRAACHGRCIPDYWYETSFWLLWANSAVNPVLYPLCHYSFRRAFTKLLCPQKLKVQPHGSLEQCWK

Regarding `C[N@@+]1([O-])C[C@H]2CCN(c3ccc(-c4ccc(-n5ncccc5=O)cc4)cc3)[C@H]2C1` (single isomer, unassigned), under setting [1], the Ki is above 5000 nM. On the same count and under the same terms, the figure for `C[N@+]1([O-])C[C@H]2CCN(c3ccc(-c4ccc(-n5ncccc5=O)cc4)cc3)[C@H]2C1` (single isomer, unassigned) is 2240 nM. Consider `CN1C[C@H]2CCN(c3ccc(-c4ccc(-n5ncccc5=O)nc4)cc3)[C@H]2C1` [2-(5-{4-[(3aR,6aR)-5-methylhexahydropyrrolo[3,4-b]pyrrol-1(2H)-yl]phenyl}pyridin-2-yl) pyridazin-3(2H)-one], for which affinity (compounds of formula (II)) was put at a Ki of 3.5 nM.

The compound `CN1C[C@H]2CCN(c3ccc(-c4ccc(-n5ncccc5=O)cc4)cc3)[C@H]2C1` [2-{4′-[(3aR,6aR)-5-methylhexahydropyrrolo[3,4-b]pyrrol-1(2H)-yl]-1,1′-biphenyl-4-yl}pyridazin-3(2H)-one] registered a Ki (compounds of formula (II)) of 8.2 nM.

For orientation: Ki means the dissociation constant of the complex between target and ligand, obtained from inhibition or displacement. A lower Ki goes with tighter binding.
